Data reported in PMC9486805, “Identification of a Phage Display-Derived Peptide Interacting with the N-Terminal Region of Factor VII Activating Protease (FSAP) Enables Characterization of Zymogen Activation” (ACS Chemical Biology, 2022).

Columns and labels:
[1] = test system: immobilized pro-FSAP; assay: Activation of pro-FSAP captured from plasma on anti-FSAP antibody-coated wells; format: biochemical, human; details: peptide 0–25 μM in solution, duplicate wells (Fig 5A)
Procedure: Figure 5 Characteristics of pro-FSAP activation in plasma by NNKC9/41: (A) neutravidin-coated wells were used to capture biotinylated NNKC9/41 or scrambled control peptide (0–25 μM). Hirudin plasma (1:10) was incubated in the wells for 1 h at 37 °C to allow for binding and activation of pro-FSAP. In parallel, wells were coated with rabbit polyclonal anti-FSAP antibody (2 μg/mL) and plasma was added to immobilize FSAP in the presence of solution phase NNKC9/41 or its scrambled control (0–25 μM). Fluorogenic substrate turnover (Ac–Ala–Lys–Nle–Arg–AMC) was monitored. (B) Plasma was incubated with NNKC9/41 and Ser–Ser control (0–50 μM each) in the absence of any antibody or in the presence of MA-FSAP-38C7 or MA-FSAP-32F10 (5 μg/mL) and the FSAP activity was monitored. (C) Plasma was incubated with NNKC9/41 (25 μM) in the presence of MA-FSAP-38C7 or MA-FSAP-32F10 (0–10 μg/mL) and the FSAP activity was monitored. For (A)–(C), results are shown as mean + range of duplicate wells.

[2] = test system: extrinsic pathway of coagulation; assay: Plasma clotting assay, diluted prothrombin time (dPT); format: biochemical, human; details: prothrombin-deficient citrated plasma 1:5, 10 mM CaCl2; peptide 0–25 μM, 60 min 37 °C; three experiments (Fig 6B)
Procedure: Figure 6 Pro-FSAP activation and clotting in plasma by NNKC9/41: (A) citrate plasma (1:12 dilution) from donors with WT/WT, WT/MI, and MI/MI genotypes and WT-FSAP-deficient plasma (FSAP-DP) were compared. Substrate turnover was monitored after addition of NNKC9/41 or the Ser–Ser linear peptide (25 μM each). Results are shown as mean + range of duplicate wells. (B) Pooled prothrombin-deficient citrated plasma (1:5 dilution) was recalcified with 10 mM CaCl2 and incubated with NNKC9/41 or scrambled control peptide (0–25 μM each) for 60 min at 37 °C in the presence or absence of the FSAP-inhibitory MA-FSAP-38C7 (5 μg/mL). Initiation of clotting was achieved by adding the tissue factor/phospholipid and prothrombin complex concentrate. Clotting time was measured as diluted prothrombin time (dPT) in seconds. Data are the mean of three independent experiments. […]
Prothrombin-deficient citrated pool plasma (Haemochrom Diagnostica, diluted 1:5 in HBS, pH 7.4) was recalcified with 10 mM CaCl2 and incubated with peptides for 60 min at 37 °C in the presence or absence of the FSAP-inhibitory MA-FSAP-38C7 (5 μg/mL). […] Clot formation was measured optically at 405 nm in a plate reader (Tecan, Crailsheim, Germany). The time from starting the reaction to 50% maximum clot turbidity was measured as diluted prothrombin time (dPT) in seconds.

[3] = test system: ΔNTR mutant; assay: Binding of biotinylated peptides to captured ΔNTR mutant; design: species or system human; details: peptide 1 μM; triplicate wells (Fig 2E)
Procedure: Figure 2 NNKC9/41 interacts with the NTR of pro-FSAP: (A) To determine peptide binding to pro-FSAP, wells were coated with 2 μg/mL pro-FSAP and biotinylated NNKC9/41 and NNK11/189 and their respective scrambled controls were added in different concentration (0–5 μM). Peroxidase-labeled streptavidin was used to detect peptide binding. (B) Same procedure as in (A) except that different proteins were immobilized and biotinylated NNKC9/41 (0–30 μM) was added and its binding was measured. (C) Schematic structure of pro-FSAP with the heavy chain consisting of an NTR, three EGF domains, and a kringle domain, followed by the light chain harboring the serine protease domain (SPD). The binding domains of antibodies used in this study are indicated. (D) Recombinant complete heavy chain (heavy) and truncated heavy chain variants ΔNTR, ΔEGF1, ΔEGF2, ΔEGF3, and ΔKringle were expressed in bacteria and analyzed by sodium dodecyl sulfate poly(acrylamide) gel electrophoresis (SDS-PAGE) followed by Coomassie staining. […] Biotinylated NNKC9/41 or the scrambled control peptide was added at 1 μM and peptide binding was measured with peroxidase-linked streptavidin. […]
Wells were coated with anti-FSAP polyclonal antibodies (5 μg/mL). […] Subsequently, the plates were washed, and bound peptides were detected with peroxidase-coupled streptavidin. […]

[4] = test system: uPA; assay: Specificity: uPA; format: biochemical; details: uPA 20 nM; peptide 0-50 μM; PNAPEP 1344 (Fig S7)
Procedure: Fig S7. […]
µM). Pro-uPA (100 nM) and uPA (20 nM) with PNAPEP 1344 (250 µM). Factor X (50 […]
Bend, IN, USA) except plasminogen and FSAP, which were isolated in house; and pro-uPA was from Grünenthal (Stolberg, Germany). All chromogenic substrates were from Hyphen Biomed (Neuville Sur Oise, France). Experiments were carried out in TBS with Tween-20 (0.1 % wt/ vol) BSA (0.3% wt/vol) and CaCl2 (2 mM). Absorbance at 405 nm was measured over time and the enzyme activity is depicted was measured in duplicates (mean + or -range) and similar results were obtained in 3

Sequence: CRGAMWMYKRC [NNKC9/41]
- activation of captured pro-FSAP [1]: found to activate pro-FSAP
- clotting time (diluted prothrombin time) [2]: significant effect on lowering the clotting time
- peptide binding to ΔNTR mutant [3]: very low binding
- effect on activity [4]: did not influence the activity
